Measurements from ChEMBL document CHEMBL1131940 (Bioorg Med Chem Lett, 1999).

Target: Estrogen receptor (Homo sapiens, UniProt Q92731+P03372)
Details: mcf-7
Description: In vitro inhibition of estrogen-stimulated MCF-7 cell proliferation

| SMILES | IC50 [nM] |
| --- | --- |
| O=C(c1ccc(SCCN2CCCCC2)cc1)c1c(-c2ccc(O)cc2)sc2cc(O)ccc12 | 0.9 |
| COc1ccc(-c2sc3cc(OC)ccc3c2C(=O)c2ccc(CCCN3CCCCC3)cc2)cc1 | 1000 |
| O=C(c1ccc(NCCN2CCCCC2)cc1)c1c(-c2ccc(O)cc2)sc2cc(O)ccc12 | 2 |
| COc1ccc(-c2sc3cc(OC)ccc3c2C(=O)c2ccc(S(=O)(=O)CCN3CCCCC3)cc2)cc1 | > 1000 |
| CN(CCN1CCCCC1)c1ccc(C(=O)c2c(-c3ccc(O)cc3)sc3cc(O)ccc23)cc1 | 10 |
| O=C(c1ccc(CCCN2CCCCC2)cc1)c1c(-c2ccc(O)cc2)sc2cc(O)ccc12 | 10 |
| O=C(c1ccc(S(=O)(=O)CCN2CCCCC2)cc1)c1c(-c2ccc(O)cc2)sc2cc(O)ccc12 | 30 |
